From patent US8269043B2, “Bicyclic aryl sphingosine 1-phosphate analogs” (Biogen Idec MA Inc., priority 2008, dated 2012) come the findings set out here.

Some results are limits rather than exact numbers.

For the first assay, the system named is circulating lymphocytes. As to the kind of experiment: Lymphopenia assay: circulating lymphocytes after oral gavage. In kind it is in vivo. Conditions: C57bl/6 male mice, oral gavage 0.5 and 5 mg/kg in 30% HPCD, blood 5 and 24 hours after administration. As to the method: Measurement of circulating lymphocytes: Compounds were dissolved in 30% HPCD. Mice (C57bl/6 male, 6-10 week-old) were administered 0.5 and 5 mg/kg of a compound via oral gavage. 30% HPCD was included as a negative control.
Blood was collected from the retro-orbital sinus 5 and 24 hours after drug administration under short isoflurane anesthesia. Whole blood samples were subjected to hematology analysis. Peripheral lymphocyte counts were determined using an automated analyzer (HEMAVET™ 3700). Three mice were used to assess the lymphocyte depletion activity of each compound screened.
Compounds of formula (I) induced full lymphopenia at times as short as 3 hours or less to as long as 48 hours or more; for example, 4 to 36 hours, or 5 to 24 hours. In some cases, a compound of formula induced full lymphopenia at 5 hours and partial lymphopenia at 24 hours. The dosage required to induce lymphopenia can be in the range of, e.g., 0.001 mg/kg to 100 mg/kg; or 0.01 mg/kg to 10 mg/kg. The dosage can be 10 mg/kg or less, such as 5 mg/kg or less, 1 mg/kg or less, or 0.1 mg/kg or less
As for `C[C@](N)(CO)c1ccc2cc(O[C@H]3C[C@H](COCc4ccccc4)C3)ccc2c1` (relative stereo) [Example 76], the “Lymphopenia (ED50 mg/kg)” value fell in the range of 0.5 to 5 mg/kg.

As to `C[C@](N)(CO)c1ccc2cc(O[C@H]3C[C@@H](COCc4ccccc4)C3)ccc2c1` (relative stereo) [Example 77], the “Lymphopenia (ED50 mg/kg)” value was less than 0.5 mg/kg.

For `CCC(C)(C)[C@H]1CC[C@H](Oc2ccc3cc([C@@](C)(N)CO)ccc3c2)CC1` (relative stereo) [Example 78, (R)-2-Amino-2-[6-(4-trans-tert-pentylcyclohexyloxy)naphthalen-2-yl]propan-1-ol], the “Lymphopenia (ED50 mg/kg)” value was 0.5 to 5 mg/kg.

In the case of `CCC(C)(C)[C@H]1CC[C@@H](Oc2ccc3cc([C@@](C)(N)CO)ccc3c2)CC1` (relative stereo) [Example 79, (R)-2-Amino-2-[6-(4-cis-tert-pentylcyclohexyloxy)naphthalen-2-yl]propan-1-ol], the “Lymphopenia (ED50 mg/kg)” value is more than 5 mg/kg.

As to `C[C@](N)(CO)c1ccc2c(C(F)(F)F)c(O[C@H]3C[C@H](COCc4ccccc4)C3)ccc2c1` (relative stereo) [Example 82], the “Lymphopenia (ED50 mg/kg)” value is on record as less than 0.5 mg/kg.

For the compound `CC(C)(C)[C@H]1CC[C@H](Oc2ccc3cc([C@](C)(N)CO)ccc3c2C(F)(F)F)CC1` (relative stereo) [Example 124, (S)-2-amino-2-[6-(4-trans-tert-butyl-cyclohexyloxy)-5-trifluoromethyl-naphthalen-2-yl]-propan-1-ol], the “Lymphopenia (ED50 mg/kg)” value was more than 5 mg/kg.

Turning to `CC(C)(C)[C@H]1CC[C@@H](Oc2ccc3cc([C@](C)(N)CO)ccc3c2C(F)(F)F)CC1` (relative stereo) [Example 128, (S)-2-amino-2-[6-(4-cis-tert-butyl-cyclohexyloxy)-5-trifluoromethyl-naphthalen-2-yl]-propan-1-ol], the “Lymphopenia (ED50 mg/kg)” value fell in the range of 0.5 to 5 mg/kg.

As to `CC(C)(C)[C@H]1CC[C@H](Oc2ccc3cc([C@@](C)(N)CO)ccc3c2)CC1` [Example 25, (R)-2-amino-2-(6-(trans-4-tert-butylcyclohexyloxy)naphthalen-2-yl)propan-1-ol], the “Lymphopenia (ED50 mg/kg)” value was more than 5 mg/kg.

For `CC(C)(C)[C@H]1CC[C@H](Oc2ccc3cc([C@@](C)(N)CO)ccc3c2)CC1` [Example 49, (R)-2-amino-2-(6-(trans-4-tert-butylcyclohexyloxy)naphthalen-2-yl)propan-1-ol], the “Lymphopenia (ED50 mg/kg)” value came out at 0.4 mg/kg.

As for `Cl.NC(CO)(CO)c1ccc2cc(O[C@H]3C[C@H](COCc4ccccc4)C3)ccc2c1` [Example 65], the “Lymphopenia (ED50 mg/kg)” value is listed as less than 0.5 mg/kg.

With `Cl.NC(CO)(CO)c1ccc2cc(O[C@H]3C[C@@H](COCc4ccccc4)C3)ccc2c1` [Example 66], the “Lymphopenia (ED50 mg/kg)” value was less than 0.5 mg/kg.

For `NC(CO)(CO)c1ccc2c(C(F)(F)F)c(O[C@H]3C[C@H](COCc4ccccc4)C3)ccc2c1` [Example 73], the “Lymphopenia (ED50 mg/kg)” value is listed as less than 0.5 mg/kg.

Consider `NC(CO)(CO)c1ccc2c(C(F)(F)F)c(O[C@H]3C[C@@H](COCc4ccccc4)C3)ccc2c1` [Example 74], for which the “Lymphopenia (ED50 mg/kg)” value is on record as less than 0.5 mg/kg.

The assay is the same for the next values; noted with them: Mus musculus, Lymphocyte, po, C57bl/6 male mice, oral gavage 0.5 and 5 mg/kg in 30% HPCD, blood 5 and 24 hours after administration.
As to `CC(CO)c1ccc2c(C(F)(F)F)c(O[C@H]3CC[C@H](C(C)(C)C)CC3)ccc2c1` (relative stereo) [Example 275, 2-[6-(trans-4-tert-Butyl-cyclohexyloxy)-5-trifluoromethyl-naphthalen-2-yl]-propan-1-ol], the ED50 – broadly, the dose that gives a 50% effect, or the effect in half of the subjects – was more than 5 mg/kg.

For `CC(N)(CO)c1ccc2c(C(F)(F)F)c(O[C@H]3CC[C@H](C(C)(C)C)CC3)ccc2c1` (relative stereo) [Example 276, 2-Amino-2-[6-(trans-4-tert-butyl-cyclohexyloxy)-5-trifluoromethyl-naphthalen-2-yl]-propan-1-ol], the ED50 is less than 0.5 mg/kg.

`CCCC[C@H]1CC[C@@H](Oc2ccc3cc([C@@](C)(N)CO)ccc3c2)CC1` [Example 6, (R)-2-amino-2-(6-(cis-4-butylcyclohexyloxy)naphthalen-2-yl)propan-1-ol] registered an ED50 of 0.75 mg/kg.

The compound `CCCCC1CCC(Oc2ccc3cc([C@@](C)(N)CO)ccc3c2)CC1` (stereo partly drawn) [Example 7, (R)-2-amino-2-(6-(4-butylcyclohexyloxy)naphthalen-2-yl)propan-1-ol] displayed an ED50 of less than 0.5 mg/kg.

For `CCCC[C@H]1CC[C@H](Oc2ccc3cc([C@@](C)(N)CO)ccc3c2)CC1` [Example 8, (R)-2-amino-2-(6-(trans-4-butylcyclohexyloxy)naphthalen-2-yl)propan-1-ol], the ED50 is less than 0.5 mg/kg.

In turn, `CCCC[C@H]1CC[C@@H](Oc2ccc3cc(C(N)(CO)CO)ccc3c2)CC1` [Example 14, 2-amino-2-(6-(cis-4-butylcyclohexyloxy)naphthalen-2-yl)propane-1,3-diol] showed an ED50 of more than 5 mg/kg.

`CCCC[C@H]1CC[C@@H](Oc2ccc3cc([C@@](C)(N)CO)ccc3c2C(F)(F)F)CC1` [Example 17, (R)-2-amino-2-(6-(cis-4-butylcyclohexyloxy)-5-(trifluoromethyl)naphthalen-2-yl)propan-1-ol] yielded an ED50 of 0.07 mg/kg.

Compound `C[C@](N)(CO)c1ccc2cc(O[C@H]3CC[C@@H](c4ccccc4)CC3)ccc2c1` [Example 30, (R)-2-amino-2-(6-(cis-4-phenylcyclohexyloxy)naphthalen-2-yl)propan-1-ol] yielded an ED50 of 0.5 to 5 mg/kg.

Consider `CC1(C)CCC(Oc2ccc3cc([C@@](C)(N)CO)ccc3c2)CC1` [Example 47, (R)-2-amino-2-(6-(4,4-dimethylcyclohexyloxy)naphthalen-2-yl)propan-1-ol], for which the ED50 was more than 5 mg/kg.

On to `C[C@](N)(CO)c1ccc2cc(OC3CCC4CCCCC4C3)ccc2c1` (stereo partly drawn) [Example 87, (R)-2-Amino-2-[6-(decahydro-naphthalen-2-yloxy)-naphthalen-2-yl]-propan-1-ol], for which the ED50 lay within 0.5 to 5 mg/kg.

As to `C[C@](N)(CO)c1ccc2cc(OC3CCC(C4CCCCC4)CC3)ccc2c1` (stereo partly drawn) [Example 89, (R)-2-Amino-2-[6-(bicyclohexyl-4-yloxy)-naphthalen-2-yl]-propan-1-ol], the ED50 was in the range of 0.5 to 5 mg/kg.

As for `CC(C)C1CCC(Oc2ccc3cc([C@@](C)(N)CO)ccc3c2)CC1` (stereo partly drawn) [Example 91, (R)-2-Amino-2-[6-(4-isopropyl-cyclohexyloxy)-naphthalen-2-yl]-propan-1-ol], the ED50 fell in the range of 0.5 to 5 mg/kg.

As for `C[C@](N)(CO)c1ccc2cc(OC3CCC(C4CCCC4)CC3)ccc2c1` (stereo partly drawn) [Example 94, (R)-2-Amino-2-[6-(4-cyclopentyl-cyclohexyloxy)-naphthalen-2-yl]-propan-1-ol], the ED50 lay in the range of 0.5 to 5 mg/kg.

Regarding `CCC(C)C1CCC(Oc2ccc3cc([C@@](C)(N)CO)ccc3c2)CC1` (stereo partly drawn) [Example 97, (R)-2-Amino-2-[6-(4-sec-butyl-cyclohexyloxy)-naphthalen-2-yl]-propan-1-ol], the ED50 is 0.5 to 5 mg/kg.

As for `C[C@](N)(CO)c1ccc2c(C(F)(F)F)c(O[C@H]3CC[C@@H](C4CCCC4)CC3)ccc2c1` [Example 100, (R)-2-Amino-2-[6-(cis-4-cyclopentyl-cyclohexyloxy)-5-trifluoromethyl-naphthalen-2-yl]-propan-1-ol], the ED50 was more than 5 mg/kg.

As for `C[C@](N)(CO)c1ccc2c(C(F)(F)F)c(O[C@H]3CC[C@H](C4CCCC4)CC3)ccc2c1` [Example 103, (R)-2-Amino-2-[6-(trans-4-cyclopentyl-cyclohexyloxy)-5-trifluoromethyl-naphthalen-2-yl]-propan-1-ol], the ED50 was more than 5 mg/kg.

As to `CN[C@@](C)(CO)c1ccc2cc(OC3CCC(C(C)(C)C)CC3)ccc2c1` (stereo partly drawn) [Example 112, (R)-2-[6-(4-tert-butyl-cyclohexyloxy)-naphthalen-2-yl]-2-methylamino-propan-1-ol], the ED50 lay within 0.5 to 5 mg/kg.

In the case of `C[C@@]1(c2ccc3c(C(F)(F)F)c(O)ccc3c2)COC(=O)N1` [Example 130, (R)-4-(6-hydroxy-5-(trifluoromethyl)naphthalen-2-yl)-4-methyloxazolidin-2-one], the ED50 is more than 5 mg/kg.

Regarding `CC(C)(C)[C@H]1CC[C@H](Oc2ccc3cc([C@]4(C)COC(=O)N4)ccc3c2C(F)(F)F)CC1` [Example 131, (R)-4-(6-(trans-4-tert-butylcyclohexyloxy)-5-(trifluoromethyl)naphthalen-2-yl)-4-methyloxazolidin-2-one], the ED50 was less than 0.5 mg/kg.

In the case of `C[C@](N)(CO)c1ccc2cc(OC3CCC4(CCCCC4)CC3)ccc2c1` [Example 133, (2R)-2-amino-2-(6-(spiro[5.5]undecan-3-yloxy)naphthalen-2-yl)propan-1-ol], the ED50 lay in the range of 0.5 to 5 mg/kg.

`C[C@](N)(CO)c1ccc2c(C(F)(F)F)c(OC3CCC4(CCCCC4)CC3)ccc2c1` [Example 139, (2R)-2-amino-2-(6-(spiro[5.5]undecan-3-yloxy)-5-(trifluoromethyl)naphthalen-2-yl)propan-1-ol] displayed an ED50 of less than 0.5 mg/kg.

`CC(C)(C)C1CCC(Cc2ccc3cc([C@@](C)(N)CO)ccc3c2)CC1` (stereo partly drawn) [Example 146, (R)-2-amino-2-(6-((4-tert-butylcyclohexyl)methyl)naphthalen-2-yl)propan-1-ol] registered an ED50 of 0.5 to 5 mg/kg.

With `CC(C)(C)[C@H]1CC[C@H](Oc2ccc3cc(C4(N)COC4)ccc3c2)CC1` [Example 151, 3-(6-(trans-4-tert-Butylcyclohexyloxy)naphthalen-2-yl)oxetan-3-amine], the ED50 fell in the range of 0.5 to 5 mg/kg.

`CC(C)(C)[C@H]1CC[C@H](Oc2ccc3cc(C4(N)COC4)ccc3c2C(F)(F)F)CC1` [Example 153, 3-(6-(trans-4-tert-butylcyclohexyloxy)-5-(trifluoromethyl)naphthalen-2-yl)oxetan-3-amine] displayed an ED50 of less than 0.5 mg/kg.
